# Measurements: patent US11242353B2, “Heterocyclic LSF inhibitors and their uses” (TRUSTEES OF BOSTON UNIVERSITY, priority 2020, dated 2022)
# Read-outs that look alike come from different tables or passages of the source.
# Tested on: Huh7 cells
# Assay: growth inhibition of Huh7 cells
# Type: cell-based
# Details: single trials per figure (FIGS. 1A-4)
# Procedure: FIGS. 1A-4 show results for growth inhibition of Huh7 cells upon contact with compounds (FQI-37Q), (FQI-34Q), (FQI-1Q), (JAK 196-22), and (JAK 196.23). Compounds (FQI-37Q) and (FQI-34Q) show high activities (GI50 about 0.5 μM and lower).
# [1] = Homo sapiens, Huh-7, Huh7 cells, read-out: GI50 (growth inhibition of Huh7 cells)
GI50 [1],SMILES,further results
3600 nM,"CCOc1ccccc1N1CC(=O)Nc2cc3c(cc21)OCO3 [FQI-1Q, 8-(2-ethoxyphenyl)-7,8-dihydro-[1,3]dioxolo[4,5-g]quinoxalin-6(5H)-one]",
,"CCOc1cc(N(C)C)ccc1N1CC(=O)Nc2cc3c(cc21)OCCO3 [FQI-37Q, 9-(4-(dimethylamino)-2-ethoxyphenyl)-2,3,8,9-tetrahydro-[1,4]dioxino[2,3-g]quinoxalin-7(6H)-one]","GI50 (read-out: GI50 (growth inhibition of Huh7 cells), Huh7 cells): 501 nM"
> 10000 nM,COc1cc([N+](=O)[O-])ccc1-n1c(=O)cnc2cc3c(cc21)OCO3 [JAK 196-22],
,"CCOc1cc(N(C)C)ccc1N1CC(=O)Nc2cc3c(cc21)OCO3 [FQI-34Q, 8-(4-(dimethylamino)-2-ethoxyphenyl)-7,8-dihydro-[1,3]dioxolo[4,5-g]quinoxalin-6(5H)-one]","GI50 (Homo sapiens, Huh-7, read-out: GI50 (growth inhibition of Huh7 cells), Huh7 cells): ≤ 500 nM"
